According to patent publication US20260042764A1, “COMPOSITIONS AND METHODS FOR INHIBITION OF KRAS” (TheRas, Inc., priority 2022, published 2026):

What was measured:
[1] = biological target: T1, Avi-KRAS G12D (1-169) GppNHp/RAF1 RBD-3xFLAG (52-151) (Homo sapiens, UniProt P01116, G12D); experiment: Raf1-KRAS G12D-GppNHP disruption HTRF assay (Biological Example 1); format: binding
T1 construct: Avi-KRAS G12D (1-169)
In short: (§1)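 Protein mix, 1 h RT, 700 rpm; reagent mix, 1 h RT, 700 rpm; HTRF read. Buffer Tris pH 7.5/NaCl/MgCl2/BSA/Tween, 10% DMSO. Output % activity, DMSO = 100%.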

[2] = biological target: T2, Avi-KRAS G12R (1-169) GppNHp/RAF1 RBD-3xFLAG (52-151) (Homo sapiens, UniProt P01116, G12R); experiment: Raf1-KRAS G12R-GppNHP disruption HTRF assay (Biological Example 1); format: binding
T2 construct: Avi-KRAS G12R (1-169)
T2 sequence (P01116 1-169 isoform P01116-2 G12R): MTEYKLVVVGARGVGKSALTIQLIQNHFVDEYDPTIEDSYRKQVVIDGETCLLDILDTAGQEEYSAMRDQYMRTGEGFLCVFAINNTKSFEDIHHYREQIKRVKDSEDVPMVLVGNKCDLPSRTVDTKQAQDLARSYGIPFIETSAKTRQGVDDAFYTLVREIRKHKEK
In short: as §1

[3] = biological target: T3, Avi-KRAS G12V (1-169) GppNHp/RAF1 RBD-3xFLAG (52-151) (Homo sapiens, UniProt P01116, G12V); experiment: Raf1-KRAS G12V-GppNHP disruption HTRF assay (Biological Example 1); format: binding
T3 construct: Avi-KRAS G12V (1-169)
T3 sequence (P01116 1-169 isoform P01116-2 G12V): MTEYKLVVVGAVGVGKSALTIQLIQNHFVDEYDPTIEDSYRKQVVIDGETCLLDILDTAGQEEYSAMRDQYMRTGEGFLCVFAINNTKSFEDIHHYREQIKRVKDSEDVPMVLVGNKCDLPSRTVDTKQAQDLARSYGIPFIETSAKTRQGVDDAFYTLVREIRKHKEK
In short: as §1

[4] = biological target: T4, Avi-KRAS WT (1-169) GppNHp/RAF1 RBD-3xFLAG (52-151) (Homo sapiens, UniProt P01116); experiment: Raf1-KRAS WT-GppNHP disruption HTRF assay (Biological Example 1); format: binding
T4 construct: Avi-KRAS WT (1-169)
T4 sequence (P01116 1-169 isoform P01116-2): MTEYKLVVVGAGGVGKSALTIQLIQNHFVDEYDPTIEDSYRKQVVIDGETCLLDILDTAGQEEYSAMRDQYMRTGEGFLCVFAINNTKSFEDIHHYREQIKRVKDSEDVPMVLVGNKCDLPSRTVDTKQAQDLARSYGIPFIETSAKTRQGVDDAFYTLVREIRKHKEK
In short: as §1

[5] = biological target: T5, Avi-KRAS G12V (2-169) GTP/RAF1 RBD-3xFLAG (51-131) (Homo sapiens, UniProt P01116, G12V); experiment: Raf1-KRAS G12V-GTP disruption HTRF assay (Biological Example 3); format: binding; details: KRAS G12V, GTP-loaded
T5 construct: Avi-KRAS G12V (2-169)
T5 sequence (P01116 2-169 isoform P01116-2 G12V): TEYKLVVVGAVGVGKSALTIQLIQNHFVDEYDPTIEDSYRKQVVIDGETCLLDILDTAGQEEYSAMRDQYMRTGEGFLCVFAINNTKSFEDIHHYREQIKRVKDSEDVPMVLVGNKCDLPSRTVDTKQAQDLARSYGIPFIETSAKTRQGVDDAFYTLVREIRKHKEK
In short: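 Compounds were titrated 10-point, 3-fold from 30 μM against preformed KRAS-GTP:RAF1 RBD (51-131) complexes at 50 nM, using KRAS 2-169 as WT, G12C, G12D or G12V. After 1 h at room temperature in Tris pH 7.5 buffer with MgCl2 and 10% DMSO, time-resolved fluorescence was read. Results are percent activity versus DMSO.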

[6] = test system: SW620 cells (KRAS G12V); experiment: Cell-based pERK HTRF assay in SW620 cell (Biological Example 4)
In short: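 SW620 seeded in RPMI/10% FBS, next day dosed 4 h (top 1 μM, half-log, 9 pts, 0.25% DMSO). Lysed, pERK by d2/Eu cryptate HTRF, 4–24 h RT, 615 nm read.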

[7] = KRAS G12D, GppNHp-loaded, class symbols
[8] = KRAS G12R, GppNHp-loaded, class symbols
[9] = KRAS G12V, GppNHp-loaded, class symbols
[10] = KRAS WT, GppNHp-loaded, class symbols
[11] = Homo sapiens, SW-620, SW620 (KRAS G12V) cells
[12] = Homo sapiens, SW-620, SW620 (KRAS G12V) cells, pERK HTRF, class symbols
[13] = KRAS G12D, GppNHp-loaded, Table 11
[14] = KRAS G12R, GppNHp-loaded, Table 11
[15] = KRAS G12V, GppNHp-loaded, Table 11
[16] = KRAS WT, GppNHp-loaded, Table 11
[17] = Homo sapiens, SW-620, SW620 (KRAS G12V) cells, pERK HTRF

T1 sequence (P01116 1-169 isoform P01116-2 G12D): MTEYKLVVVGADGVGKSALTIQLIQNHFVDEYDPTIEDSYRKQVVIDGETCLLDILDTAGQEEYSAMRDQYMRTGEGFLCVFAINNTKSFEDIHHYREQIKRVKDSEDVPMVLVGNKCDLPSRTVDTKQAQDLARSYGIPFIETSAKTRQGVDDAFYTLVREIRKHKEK

SMILES	IC50 [1, 7]	IC50 [2, 8]	IC50 [3, 9]	IC50 [4, 10]	IC50 [5]	IC50 [6, 11]	IC50 [6, 12]	IC50 ([6]; SW620 (KRAS G12V) cells)	IC50 ([6]; SW620 (KRAS G12V) cells, pERK HTRF, class symbols)	IC50 [1, 13]	IC50 [2, 14]	IC50 [3, 15]	IC50 [4, 16]	IC50 [6, 17]	IC50 ([1]; KRAS G12D-GppNHp/RAF1 RBD HTRF)	IC50 ([2]; KRAS G12R-GppNHp/RAF1 RBD HTRF)	IC50 ([3]; KRAS G12V-GppNHp/RAF1 RBD HTRF)	IC50 ([4]; KRAS WT-GppNHp/RAF1 RBD HTRF)	IC50 ([6]; SW620 (KRAS G12V) cells, pERK HTRF)
CCN(c1nc(OC[C@@]23CCCN2C[C@H](F)C3)nc2c(F)c(-c3ccc(F)c4sc(N)c(C#N)c34)c(C(F)(F)F)cc12)[C@H]1CCN(C(=O)C2CC2(F)F)C1 (stereo partly drawn) [Compound 581]	< 100 nM	< 100 nM	< 100 nM	< 100 nM	≤ 100 nM	< 100 nM	< 100 nM	–	–	–	–	–	–	–	–	–	–	–	–
CCN(c1nc(OC[C@@]23CCCN2C[C@H](F)C3)nc2c(F)c(-c3ccc(F)c4sc(N)c(C#N)c34)c(C(F)(F)F)cc12)[C@H]1C[C@H]2CCC(=O)N2C1 (atropisomer, axis not shown; (aR)) [Compound 573, 2-amino-4-((S)-4-(ethyl((2S,7aR)-5-oxohexahydro-1H-pyrrolizin-2-yl)amino)-8-fluoro-2-(((2R,7aS)-2-fluorotetrahydro-1H-pyrrolizin-7a(5H)-yl)methoxy)-6-(trifluoromethyl)quinazolin-7-yl)-7-fluorobenzo[b]thiophene-3-carbonitrile]	< 100 nM	< 100 nM	< 100 nM	< 100 nM	≤ 100 nM	< 100 nM	< 100 nM	–	–	–	–	–	–	–	–	–	–	–	–
CCN(c1nc(OC[C@@]23CCCN2C[C@H](F)C3)nc2c(F)c(-c3ccc(F)c4sc(N)c(C#N)c34)c(C(F)(F)F)cc12)[C@H]1C[C@H](COC)N(C(=O)C2CC2)C1 (atropisomer, axis not shown) [Compound 696]	< 100 nM	< 100 nM	< 100 nM	< 100 nM	100 to 1000 nM	< 100 nM	< 100 nM	–	–	–	–	–	–	–	–	–	–	–	–
CCN(c1nc(OCC23CCCN2CC(F)C3)nc2c(F)c(-c3ccc(F)c4sc(N)c(C#N)c34)c(C(F)(F)F)cc12)C1CC(C)N(C(=O)C2CC2(F)F)C1 (stereo not drawn) [Compound 732]	< 100 nM	< 100 nM	< 100 nM	100 to 1000 nM	100 to 1000 nM	–	–	< 100 nM	< 100 nM	–	–	–	–	–	–	–	–	–	–
C/C=C/C(=O)N1CC[C@H](N(CC)c2nc(OC[C@@]34CCCN3C[C@H](F)C4)nc3c(F)c(-c4ccc(F)c5sc(N)c(C#N)c45)c(C(F)(F)F)cc23)C1 (atropisomer, axis not shown) [Compound 674]	< 100 nM	< 100 nM	< 100 nM	< 100 nM	≤ 100 nM	100 to 1000 nM	< 100 nM	–	–	–	–	–	–	–	–	–	–	–	–
N#Cc1c(N)sc2c(F)ccc(-c3c(C(F)(F)F)cc4c(N5CC6CC(C5)O6)nc(OC[C@@]56CCCN5C[C@H](F)C6)nc4c3F)c12 (single isomer, unassigned) [Compound 275]	–	–	–	–	100 to 1000 nM	< 100 nM	–	–	–	100 to 1000 nM	100 to 1000 nM	100 to 1000 nM	100 to 1000 nM	< 100 nM	–	–	–	–	–
CCN(c1nc(OC[C@@]23CCCN2C[C@H](F)C3)nc2c(F)c(-c3ccc(F)c4sc(N)c(C#N)c34)c(C(F)(F)F)cc12)[C@H]1CCN(C(=O)C(C)C)C1 [Compound 332]	–	–	–	–	100 to 1000 nM	< 100 nM	–	–	–	–	–	–	–	–	< 100 nM	< 100 nM	100 to 1000 nM	< 100 nM	< 100 nM
CCN(c1nc(OC[C@@]23CCCN2C[C@H](F)C3)nc2c(F)c(-c3ccc(F)c4sc(N)c(C#N)c34)c(C(F)(F)F)cc12)[C@H]1C[C@@H]2CN(C)C(=O)N2C1 (atropisomer, axis not shown) [Compound 605]	< 100 nM	< 100 nM	100 to 1000 nM	< 100 nM	100 to 1000 nM	< 100 nM	< 100 nM	–	–	–	–	–	–	–	–	–	–	–	–
C[C@H](c1cccnc1N)N(C)c1nc(OC[C@@]23CCCN2C[C@H](F)C3)nc2c(F)c(-c3ccc(F)c4sc(N)c(C#N)c34)c(C(F)(F)F)cc12 (atropisomer, axis not shown) [Compound 600]	< 100 nM	< 100 nM	< 100 nM	< 100 nM	≤ 100 nM	< 100 nM	< 100 nM	–	–	–	–	–	–	–	–	–	–	–	–
CCN(c1nc(OC[C@@]23CCCN2C[C@H](F)C3)nc2c(F)c(-c3ccc(F)c4sc(N)c(C#N)c34)c(C(F)(F)F)cc12)[C@@H]1CCN(C(=O)C2CC2)C1 [Compound 329]	–	–	–	–	100 to 1000 nM	< 100 nM	–	–	–	–	–	–	–	< 100 nM	100 to 1000 nM	100 to 1000 nM	100 to 1000 nM	100 to 1000 nM	–
C[C@H]1Cn2nc(C(=O)N(C)C)cc2CN1c1nc(OC[C@@]23CCCN2C[C@H](F)C3)nc2c(F)c(-c3ccc(F)c4sc(N)c(C#N)c34)c(C(F)(F)F)cc12 (atropisomer, axis not shown) [Compound 610]	< 100 nM	100 to 1000 nM	100 to 1000 nM	100 to 1000 nM	100 to 1000 nM	< 100 nM	< 100 nM	–	–	–	–	–	–	–	–	–	–	–	–
N#Cc1c(N)sc2c(F)ccc(-c3c(C(F)(F)F)cc4c(N5C[C@H]6C[C@@H]5CO6)nc(OC[C@@]56CCCN5C[C@H](F)C6)nc4c3F)c12 [Compound 253, 2-amino-7-fluoro-4-[8-fluoro-2-[[(2R,8S)-2-fluoro-1,2,3,5,6,7-hexahydropyrrolizin-8-yl]methoxy]-4-[(1R,4R)-2-oxa-5-azabicyclo[2.2.1]heptan-5-yl]-6-(trifluoromethyl)quinazolin-7-yl]benzothiophene-3-carbonitrile]	–	–	–	–	1000 to 10000 nM	< 100 nM	–	–	–	100 to 1000 nM	100 to 1000 nM	100 to 1000 nM	100 to 1000 nM	100 to 1000 nM	–	–	–	–	–
CCN(c1nc(OC[C@@]23CCCN2C[C@H](F)C3)nc2c(F)c(-c3ccc(F)c4sc(N)c(C#N)c34)c(C(F)(F)F)cc12)[C@H]1CCN(C(=O)C2C[C@@H]2F)C1 (stereo partly drawn) [Compound 692]	< 100 nM	< 100 nM	< 100 nM	< 100 nM	≤ 100 nM	< 100 nM	< 100 nM	–	–	–	–	–	–	–	–	–	–	–	–
N#Cc1c(N)sc2c(F)ccc(-c3c(C(F)(F)F)cc4c(N5CCCOCC5)nc(OC[C@@]56CCCN5C[C@H](F)C6)nc4c3F)c12 [Compound 232]	–	–	–	–	100 to 1000 nM	< 100 nM	–	–	–	< 100 nM	100 to 1000 nM	100 to 1000 nM	100 to 1000 nM	< 100 nM	–	–	–	–	–
CCN(c1nc(OC[C@@]23CCCN2C[C@H](F)C3)nc2c(F)c(-c3ccc(F)c4sc(N)c(C#N)c34)c(C(F)(F)F)cc12)[C@@H]1CCN(C(=O)C(C)C)C1 [Compound 328]	–	–	–	–	1000 to 10000 nM	< 100 nM	–	–	–	–	–	–	–	< 100 nM	100 to 1000 nM	100 to 1000 nM	100 to 1000 nM	100 to 1000 nM	–
CCN(c1nc(OC[C@@]23CCCN2C[C@H](F)C3)nc2c(F)c(-c3ccc(F)c4sc(N)c(C#N)c34)c(C(F)(F)F)cc12)[C@H]1CCN(C(C)=O)C1 [Compound 262]	–	–	–	–	100 to 1000 nM	< 100 nM	–	–	–	< 100 nM	< 100 nM	< 100 nM	< 100 nM	< 100 nM	–	–	–	–	–
CCN(c1nc(OC[C@@]23CCCN2C[C@H](F)C3)nc2c(F)c(-c3ccc(F)c4sc(N)c(C#N)c34)c(C(F)(F)F)cc12)[C@H]1CCN(C(=O)N(C)C)[C@@H]1C (atropisomer, axis not shown) [Compound 749]	< 100 nM	< 100 nM	< 100 nM	< 100 nM	≤ 100 nM	< 100 nM	< 100 nM	–	–	–	–	–	–	–	–	–	–	–	–
CCN(c1nc(OC[C@@]23CCCN2C[C@H](F)C3)nc2c(F)c(-c3ccc(F)c4sc(N)c(C#N)c34)c(C(F)(F)F)cc12)[C@H]1CCN(C(=O)N2CCN(C(C)=O)CC2)C1 (atropisomer, axis not shown) [Compound 619]	< 100 nM	< 100 nM	< 100 nM	< 100 nM	100 to 1000 nM	< 100 nM	< 100 nM	–	–	–	–	–	–	–	–	–	–	–	–
